The record followed here is patent publication US9776972B2, “Pyrazole derivatives as arginine methyltransferase inhibitors and uses thereof” (priority 2013, dated 2017).

One may read the IC50 as the concentration at which inhibition is half-maximal. A lower IC50 goes with inhibition by little substance.

Chain of human PRMT8 (Q9NR22 whole entry): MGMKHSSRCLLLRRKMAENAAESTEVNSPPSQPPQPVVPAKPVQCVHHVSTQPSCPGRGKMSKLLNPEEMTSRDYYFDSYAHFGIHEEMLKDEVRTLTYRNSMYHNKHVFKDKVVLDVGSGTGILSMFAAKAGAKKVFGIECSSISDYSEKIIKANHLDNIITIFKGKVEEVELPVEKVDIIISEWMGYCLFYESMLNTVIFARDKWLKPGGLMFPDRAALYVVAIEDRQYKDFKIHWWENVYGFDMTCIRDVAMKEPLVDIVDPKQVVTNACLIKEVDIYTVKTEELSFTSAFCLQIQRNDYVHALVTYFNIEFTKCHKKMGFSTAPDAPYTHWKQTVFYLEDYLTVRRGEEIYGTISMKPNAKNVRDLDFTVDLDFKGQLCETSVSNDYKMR

In this assay the target is human PRMT8 (Homo sapiens, UniProt Q9NR22). The assay is described as follows: PRMT8 Biochemical Assay (3H-SAM Flashplate, peptide substrate). Conditions: single experiment or average of multiple experiments. A digest of the protocol:
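E. coli-expressed human PRMT8 (GST removed) was preincubated with compound for 30 min at room temperature in 20 mM Bicine pH 7.6 with TCEP, BSG and Tween 20. 3H-SAM and a biotinylated H4 31-45 peptide were then added, and the reaction was stopped with cold SAM. Labelled peptide was captured on streptavidin Flashplates; % inhibition was calculated against DMSO and SAH controls and fitted to a 3- or 4-parameter curve.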
`CCN(CCN)Cc1c[nH]nc1-c1ccc(F)cc1` [Compound 62] displayed an IC50 of 362 nM. In other words, the sub-micromolar range.

In turn, `CN(CCN)Cc1c[nH]nc1-c1ccc(C#N)cc1` [Compound 68] registered an IC50 of 404 nM.

For the compound `CN(CCN)Cc1cnn(CCO)c1-c1ccc(F)cc1` [Compound 65], the 50% inhibitory concentration (IC50) worked out at 8610 nM.

For the compound `CCCc1ccc(-c2n[nH]cc2CN(C)CCNC)cc1` [Compound 20], the IC50 stood at 57.7 nM. Against the preceding compound, the IC50 is about 150-fold lower.

`CNCCN(C)Cc1c[nH]nc1-c1cccc(C#N)c1` [Compound 22]: the midpoint of inhibition, the IC50, lay at 2240 nM.

The compound `CNCCN(C)Cc1c[nH]nc1-c1cccc(OC)c1` [Compound 24] gave an IC50 of 888 nM.

On to `CNCCN(C)Cc1c[nH]nc1-c1ccc(OC)cc1OC` [Compound 55], for which half-maximal inhibition (IC50) required 3190 nM.

For `CNCCN(C)Cc1c[nH]nc1-c1cccc([N+](=O)[O-])c1` [Compound 21], the IC50 was 520 nM. This IC50 lies about 6.1-fold lower than the previous one.

Compound `CNCCN(C)Cc1c[nH]nc1-c1ccc(F)cc1F` [Compound 49] came in with an IC50 of 749 nM.

As to `CNCCN(C)Cc1c[nH]nc1-c1ccccc1-c1ccccc1` [Compound 46], the IC50 is 11900 nM.

As for `CNCCN(C)Cc1c[nH]nc1-c1ccc(N)cc1` [Compound 33], 1430 nM corresponded to half-maximal inhibition (IC50).

The compound `CNCCN(C)Cc1c[nH]nc1-c1ccc(Oc2ccccc2)cc1` [Compound 37] had an IC50 of 57.6 nM.

In the case of `CNCCN(C)Cc1c[nH]nc1-c1cccc(O)c1` [Compound 26], half-maximal inhibition (IC50) required 1500 nM.

Regarding `CNCCN(C)Cc1cnn(CC(=O)OC)c1-c1ccc(OC(C)C)cc1` [Compound 249], the IC50 was 1500 nM. This lies in the single-digit micromolar range.

Compound `CNCCN(C)Cc1c[nH]nc1-c1ccc(C)cc1C` [Compound 29] showed an IC50 of 2310 nM.

For `CNCCN(C)Cc1c[nH]nc1-c1ccc2ccccc2c1` [Compound 58], the IC50 came out at 170 nM.

`CCCN(CCN)Cc1c[nH]nc1-c1ccc(F)cc1` [Compound 63]: the IC50 turned out to be 8030 nM.

With `CNCCN(C)Cc1c[nH]nc1-c1ccccc1OC` [Compound 23], the half-inhibitory concentration (IC50) was determined as 3290 nM.

The compound `CNCCN(C)Cc1c[nH]nc1-c1c(OC)cccc1OC` [Compound 56] came in with an IC50 of 34900 nM.

The compound `CCNC(=O)c1cccc(-c2n[nH]cc2CN(C)CCNC)c1` [Compound 43] showed an IC50 of 2260 nM.

`CN(CCN)Cc1cn(CCO)nc1-c1ccc(F)cc1` [Compound 66]: 8750 nM corresponded to half-maximal inhibition (IC50).

As for `CNCCN(C)Cc1c[nH]nc1-c1ccc(F)c(F)c1` [Compound 51], it took 184 nM to reach half-maximal inhibition (IC50).

Take `CNCCN(C)Cc1cnn(CCCC(O)CO)c1-c1ccc(F)cc1` (stereo not drawn) [Compound 31]: the IC50 was 6310 nM.

On to `CNCCN(C)Cc1c[nH]nc1-c1ccc(OC)cc1` [Compound 25], for which the IC50 worked out at 550 nM.

Consider `CNCCN(C)Cc1c[nH]nc1-c1cc(F)ccc1F` [Compound 50], for which the midpoint of inhibition, the IC50, lay at 1660 nM.

Turning to `CNCCN(C)Cc1cn(CC(=O)O)nc1-c1ccc(OC(C)C)cc1` [Compound 250], it took 2540 nM to reach half-maximal inhibition (IC50).

Consider `CNCCN(C)Cc1cn(CCCC(O)CO)nc1-c1ccc(F)cc1` (stereo not drawn) [Compound 30], for which the IC50 was above 50000 nM.

In turn, `CNCCN(C)Cc1cn(CCC(O)CO)nc1-c1ccc(F)cc1` (stereo not drawn) [Compound 59] registered an IC50 of 8860 nM. This counts as single-digit micromolar.

For `CNCCN(C)Cc1c[nH]nc1-c1cccc2ccccc12` [Compound 57], the IC50 amounted to 196 nM.

Turning to `CNCCN(C)Cc1c[nH]nc1-c1ccc(OC)c(F)c1` [Compound 52], the IC50 worked out at 219 nM.

`CNCCN(C)Cc1c[nH]nc1-c1ccc(F)cc1` [Compound 2, N^1-((3-(4-fluorophenyl)-1H-pyrazol-4-yl)methyl)-N^1,N^2-dimethylethane-1,2-diamine]: the IC50 came out at 507 nM. Compared with the last compound, the IC50 is about 2.3-fold higher.

On to `CNCCN(C)Cc1c[nH]nc1-c1ccc(O)cc1` [Compound 27], for which the IC50 came out at 712 nM.

For `CNCCN(C)Cc1c[nH]nc1-c1ccc(C(=O)c2ccccc2)cc1` [Compound 45], half-maximal inhibition (IC50) required 308 nM.

On to `CNCCN(C)Cc1c[nH]nc1-c1ccc(CO)cc1` [Compound 28], for which it took 95.5 nM to reach half-maximal inhibition (IC50).

In turn, `CNCCN(C)Cc1c[nH]nc1-c1ccccc1C(F)(F)F` [Compound 38] registered an IC50 of 9900 nM.

`CNCCN(C)Cc1cn(C2CCCCC2)nc1-c1ccc(OC(C)C)cc1` [Compound 256] gave an IC50 of 2650 nM. Compared with the last compound, the IC50 is about 3.7-fold lower.
